{"source": "patent US4330529A", "about": "“Antibacterial composition” (Fujisawa Pharmaceutical Co., Ltd., priority 1979, dated 1982)", "key": {"Escherichia coli 116": {"system": "Escherichia coli 116", "assay": "MIC and FIC, Nutrient agar (Test 7)", "format": "cell-based", "conditions": "E. coli 116, 18 h", "method": "(§1) FIC values and FIC Index were calculated in substantially the same manner as described in Test 1."}, "Citrobacter freundii 35": {"system": "Citrobacter freundii 35", "assay": "MIC and FIC, Nutrient agar (Tests 6, 7, 9)", "format": "cell-based"}, "[1]": {"system": "Pseudomonas aeruginosa No.14", "assay": "MIC and FIC, Nutrient agar, multiple inoculator (Test 4)", "format": "cell-based", "conditions": "P. aeruginosa No.14, 10^8 cells/ml, 20 h", "method": "(§2) After the incubation was carried out at 37° C. for 20 hours, MIC values were determined.\nas §1"}, "Escherichia coli 99": {"system": "Escherichia coli 99", "assay": "MIC and FIC, Nutrient agar (Test 6)", "conditions": "Escherichia coli, 99, 18 h", "method": "as §1"}, "[2]": {"system": "Enterobacter aerogenes 1402-10", "assay": "MIC and FIC, Nutrient agar (Tests 2, 3)", "format": "cell-based", "conditions": "Klebsiella aerogenes, 140210, 20 h"}, "Enterobacter aerogenes 7": {"system": "Enterobacter aerogenes 7", "assay": "MIC and FIC, Nutrient agar (Tests 6, 7, 9)", "format": "cell-based", "conditions": "Klebsiella aerogenes; E. aerogenes 7; 18 h; read-out: MIC", "method": "as §1"}, "[3]": {"system": "Salmonella paratyphi A-1015", "assay": "MIC and FIC, Nutrient agar (Test 2)", "format": "cell-based", "conditions": "Salmonella enterica; S. paratyphi A-1015; 20 h", "method": "as §2, §1"}, "[4]": {"system": "Pseudomonas aeruginosa No.15", "assay": "MIC and FIC, Nutrient agar, multiple inoculator (Test 4)", "format": "cell-based", "conditions": "P. aeruginosa No.15, 10^8 cells/ml, 20 h", "method": "as §2, §1"}, "Escherichia coli 82": {"system": "Escherichia coli 82", "assay": "MIC and FIC, Nutrient agar (Test 7)", "format": "cell-based", "conditions": "E. coli 82, 18 h", "method": "as §1"}, "Proteus rettgeri 1434-3": {"system": "Proteus rettgeri 1434-3", "assay": "MIC and FIC, Nutrient agar (Test 3)", "format": "cell-based", "conditions": "Providencia rettgeri, 14343; P. rettgeri 1434-3; 20 h", "method": "as §2, §1"}, "[5]": {"system": "Pseudomonas aeruginosa No.13", "assay": "MIC and FIC, Nutrient agar, multiple inoculator (Test 5)", "format": "cell-based", "conditions": "Pseudomonas aeruginosa; P. aeruginosa No.13; 10^8 cells/ml, 20 h; read-out: MIC", "method": "as §2, §1"}, "[6]": {"system": "Pseudomonas aeruginosa No.9", "assay": "MIC and FIC, Nutrient agar, multiple inoculator (Test 4)", "format": "cell-based", "conditions": "P. aeruginosa No.9, 10^8 cells/ml, 20 h", "method": "as §2, §1"}, "Serratia marcescens 4": {"system": "Serratia marcescens 4", "assay": "MIC and FIC, Nutrient agar (Test 9)", "format": "cell-based", "conditions": "S. marcescens 4, 18 h", "method": "as §1"}, "Serratia marcescens 9": {"system": "Serratia marcescens 9", "assay": "MIC and FIC, Nutrient agar (Test 6)", "format": "cell-based", "conditions": "Serratia marcescens; S. marcescens 9; 18 h; read-out: MIC", "method": "as §1"}, "[7]": {"system": "Pseudomonas aeruginosa 42", "assay": "MIC and FIC, Nutrient agar (Test 7)", "format": "cell-based", "conditions": "Pseudomonas aeruginosa; P. aeruginosa 42; 18 h; read-out: MIC", "method": "as §1"}, "[8]": {"system": "Klebsiella pneumoniae NCTC 418", "assay": "MIC and FIC, Nutrient agar (Tests 2, 3)", "format": "cell-based", "conditions": "NCTC418, K. pneumoniae NCTC 418, 20 h", "method": "as §2"}, "[9]": {"system": "Pseudomonas aeruginosa No.5", "assay": "MIC and FIC, Nutrient agar, multiple inoculator (Tests 4, 5)", "format": "cell-based", "conditions": "Pseudomonas aeruginosa; P. aeruginosa No.5; 10^8 cells/ml, 20 h; read-out: MIC", "method": "as §2"}, "[10]": {"system": "Salmonella typhimurium 1406", "assay": "MIC and FIC, Nutrient agar (Tests 2, 3)", "format": "cell-based", "conditions": "Salmonella enterica, TYPHIMURIUM, 20 h"}, "Enterobacter cloacae 18": {"system": "Enterobacter cloacae 18", "assay": "MIC and FIC, Nutrient agar (Tests 7, 9)", "format": "cell-based", "conditions": "E. cloacae 18, 18 h", "method": "as §1"}, "Serratia marcescens 27": {"system": "Serratia marcescens 27", "assay": "MIC and FIC, Nutrient agar (Test 7)", "format": "cell-based", "conditions": "S. marcescens 27, 18 h", "method": "as §1"}, "[11]": {"system": "Pseudomonas aeruginosa No.12", "assay": "MIC and FIC, Nutrient agar, multiple inoculator (Test 5)", "format": "cell-based", "conditions": "Pseudomonas aeruginosa; P. aeruginosa No.12; 10^8 cells/ml, 20 h; read-out: MIC", "method": "as §2, §1"}, "Citrobacter freundii 63": {"system": "Citrobacter freundii 63", "assay": "MIC and FIC, Nutrient agar (Test 9)", "format": "cell-based", "conditions": "C. freundii 63, 18 h", "method": "as §1"}, "Proteus vulgaris 5": {"system": "Proteus vulgaris 5", "assay": "MIC and FIC, Nutrient agar (Test 6)", "format": "cell-based", "conditions": "Proteus vulgaris; P. vulgaris 5; 18 h; read-out: MIC", "method": "as §1"}, "[12]": {"system": "Proteus vulgaris IAM-1025", "assay": "MIC and FIC, Nutrient agar (Test 2)", "format": "cell-based", "conditions": "IAM1025, P. vulgaris IAM-1025, 20 h", "method": "as §2, §1"}, "Proteus vulgaris 22": {"system": "Proteus vulgaris 22", "assay": "MIC and FIC, Nutrient agar (Test 9)", "format": "cell-based", "conditions": "P. vulgaris 22, 18 h", "method": "as §1"}, "[13]": {"system": "Shigella flexneri Ia EW-8", "assay": "MIC and FIC, Nutrient agar (Test 2)", "format": "cell-based", "conditions": "IAEW8, S. flexneri Ia EW-8, 20 h", "method": "as §2"}, "Proteus vulgaris 7": {"system": "Proteus vulgaris 7", "assay": "MIC and FIC, Nutrient agar (Tests 7, 9)", "format": "cell-based", "conditions": "P. vulgaris 7"}, "Escherichia coli No.14": {"system": "Escherichia coli No.14", "assay": "MIC and FIC, Nutrient agar, multiple inoculator (Test 4)", "format": "cell-based", "conditions": "E. coli No.14, 10^8 cells/ml, 20 h", "method": "as §2"}, "Proteus morganii 1433-2": {"system": "Proteus morganii 1433-2", "assay": "MIC and FIC, Nutrient agar (Tests 2, 3)", "format": "cell-based", "conditions": "Morganella morganii, 14332; P. morganii 1433-2; 20 h", "method": "as §2"}, "Klebsiella pneumoniae 8": {"system": "Klebsiella pneumoniae 8", "assay": "Isobologram, growth in Nutrient broth in various combination ratios (Test 8)", "format": "cell-based", "set-up": "key: +: the test microorganism grew; -: the test microorganism did not grow", "conditions": "gentamicin sulfate 0", "method": "After the incubation was carried out at 37° C. for 18 hours, the growth of the test organism was observed."}, "[14]": {"system": "Staphylococcus epidermidis 1601-1", "assay": "MIC and FIC, Nutrient agar (Tests 2, 3)", "format": "cell-based", "conditions": "16011, S. epidermidis 1601-1, 20 h", "method": "as §2"}, "Proteus mirabilis 48": {"system": "Proteus mirabilis 48", "assay": "MIC and FIC, Nutrient agar (Test 7)", "format": "cell-based", "conditions": "P. mirabilis 48, 18 h", "method": "as §1"}, "[15]": {"system": "Enterobacter cloacae 1401-4", "assay": "MIC and FIC, Nutrient agar (Tests 2, 3)", "format": "cell-based", "conditions": "E. cloacae 1401-4"}, "[16]": {"system": "Pseudomonas aeruginosa No.7", "assay": "MIC and FIC, Nutrient agar, multiple inoculator (Test 4)", "format": "cell-based", "conditions": "P. aeruginosa No.7, 10^8 cells/ml, 20 h", "method": "as §2, §1"}, "[17]": {"system": "Salmonella enteritidis 1891", "assay": "MIC and FIC, Nutrient agar (Test 2)", "format": "cell-based", "conditions": "Salmonella enterica; S. enteritidis 1891; 20 h", "method": "as §2"}}, "note": "Like-named read-outs stand apart in the source and are kept apart here.", "data": [{"smiles": "O=CN(O)CCCP(=O)(O)O", "note": "[A (Table 2)]", "values": [{"measurement": "MIC", "setting": "Escherichia coli 116", "result": 200, "unit": "µg/mL"}, {"measurement": "MIC", "setting": "Citrobacter freundii 35; C. freundii 35, 18 h, listed as A (Table 9)", "result": 100, "unit": "µg/mL"}, {"measurement": "MIC", "setting": "Citrobacter freundii 35; C. freundii 35, 18 h, listed as A (Table 10)", "result": 100, "unit": "µg/mL"}, {"measurement": "MIC", "setting": "Citrobacter freundii 35; Citrobacter freundii, 35, 18 h", "result": 50, "unit": "µg/mL"}, {"measurement": "MIC", "setting": "Citrobacter freundii 35; Citrobacter freundii, 35, 18 h, C. freundii 35, 18 h", "result": 100, "unit": "µg/mL"}, {"measurement": "MIC", "setting": "[1]", "result": 400, "unit": "µg/mL"}, {"measurement": "MIC", "setting": "Escherichia coli 99", "result": 25, "unit": "µg/mL"}, {"measurement": "MIC", "setting": "[2]", "result": 6.25, "unit": "µg/mL"}, {"measurement": "MIC", "setting": "Enterobacter aerogenes 7", "result": 100, "unit": "µg/mL"}, {"measurement": "MIC", "setting": "[3]", "result": 6.25, "unit": "µg/mL"}, {"measurement": "MIC", "setting": "[4]", "result": "> 800", "unit": "µg/mL"}, {"measurement": "MIC", "setting": "Escherichia coli 82", "result": 100, "unit": "µg/mL"}, {"measurement": "MIC", "setting": "Proteus rettgeri 1434-3", "result": 1.56, "unit": "µg/mL"}, {"measurement": "MIC", "setting": "[5]", "result": 800, "unit": "µg/mL"}, {"measurement": "MIC", "setting": "[6]", "result": "> 800", "unit": "µg/mL"}, {"measurement": "MIC", "setting": "Serratia marcescens 4", "result": 50, "unit": "µg/mL"}, {"measurement": "MIC", "setting": "Serratia marcescens 9", "result": 200, "unit": "µg/mL"}, {"measurement": "MIC", "setting": "[7]", "result": 50, "unit": "µg/mL"}, {"measurement": "MIC", "setting": "[8]", "result": 25, "unit": "µg/mL"}, {"measurement": "MIC", "setting": "[9]", "result": 800, "unit": "µg/mL"}, {"measurement": "MIC", "setting": "[10]", "result": 6.25, "unit": "µg/mL"}, {"measurement": "MIC", "setting": "Enterobacter cloacae 18; listed as A (Table 14)", "result": 100, "unit": "µg/mL"}, {"measurement": "MIC", "setting": "Enterobacter cloacae 18; Enterobacter cloacae, read-out: MIC", "result": 200, "unit": "µg/mL"}, {"measurement": "MIC", "setting": "Serratia marcescens 27", "result": 400, "unit": "µg/mL"}, {"measurement": "MIC", "setting": "[11]", "result": 800, "unit": "µg/mL"}, {"measurement": "MIC", "setting": "Citrobacter freundii 63", "result": 50, "unit": "µg/mL"}, {"measurement": "MIC", "setting": "Proteus vulgaris 5", "result": 25, "unit": "µg/mL"}, {"measurement": "MIC", "setting": "[12]", "result": 1.56, "unit": "µg/mL"}, {"measurement": "MIC", "setting": "Proteus vulgaris 22", "result": 6.25, "unit": "µg/mL"}, {"measurement": "MIC", "setting": "[13]", "result": 1.56, "unit": "µg/mL"}, {"measurement": "MIC", "setting": "Proteus vulgaris 7; 18 h, listed as A (Table 15)", "result": 50, "unit": "µg/mL"}, {"measurement": "MIC", "setting": "Proteus vulgaris 7; Proteus vulgaris, 7, 18 h", "result": 25, "unit": "µg/mL"}, {"measurement": "MIC", "setting": "Escherichia coli No.14", "result": 25, "unit": "µg/mL"}, {"measurement": "MIC", "setting": "Proteus morganii 1433-2", "result": "≥ 400", "unit": "µg/mL"}, {"measurement": "growth of the test organism", "setting": "Klebsiella pneumoniae 8; phosphonic acid salt 0.78 mcg/ml", "result": "+"}, {"measurement": "growth of the test organism", "setting": "Klebsiella pneumoniae 8; phosphonic acid salt 1.56 mcg/ml", "result": "+"}, {"measurement": "growth of the test organism", "setting": "Klebsiella pneumoniae 8; phosphonic acid salt 3.13 mcg/ml", "result": "+"}, {"measurement": "growth of the test organism", "setting": "Klebsiella pneumoniae 8; phosphonic acid salt 6.25 mcg/ml", "result": "+"}, {"measurement": "growth of the test organism", "setting": "Klebsiella pneumoniae 8; phosphonic acid salt 12.5 mcg/ml", "result": "+"}, {"measurement": "growth of the test organism", "setting": "Klebsiella pneumoniae 8; phosphonic acid salt 25 mcg/ml", "result": "-"}, {"measurement": "MIC", "setting": "[14]", "result": "≥ 400", "unit": "µg/mL"}, {"measurement": "MIC", "setting": "Proteus mirabilis 48", "result": 25, "unit": "µg/mL"}, {"measurement": "MIC", "setting": "[15]; 20 h, listed as A (Table 3)", "result": 3.16, "unit": "µg/mL"}, {"measurement": "MIC", "setting": "[15]; 20 h, listed as A (Table 4)", "result": 3.13, "unit": "µg/mL"}, {"measurement": "MIC", "setting": "[15]; Enterobacter cloacae, 14014, 20 h", "result": 3.13, "unit": "µg/mL"}, {"measurement": "MIC", "setting": "[16]", "result": 200, "unit": "µg/mL"}, {"measurement": "MIC", "setting": "[17]", "result": 0.78, "unit": "µg/mL"}]}]}
